According to patent publication EP0007019A1, “5-Phenyl-pyrazole derivatives and their salts, processes for their preparation and medicines containing them” (Kali-Chemie Pharma GmbH, priority 1978, dated 1980):
Like-named read-outs stand apart in the source and are kept apart here.

What was measured:
Format in all cases: in vivo
NMRI-Maus = assay: Acute 7-day toxicity after a single administration (LD50, probit analysis); conditions: for Toxizität: statement in words, test not specified
From the text: (§1) Die akute 7-Tage-Toxizität wurde nach einmaliger Applikation an der weißen, nüchternen NMRI-Maus bestimmt.

Versuchstieren = assay: PCA test (passive cutaneous anaphylaxis reaction), peroral
From the text: Die neuen Verbindungen eignen sich insbesondere aufgrund ihrer oralen antianaphylaktischen Wirksamkeit zur Behandlung von allergischen Reaktionen.

[1] = Acute 7-day toxicity after a single administration (LD50, probit analysis); conditions: in vivo, single administration, fasted NMRI mouse, 7 days
From the text: as §1

[2] = system: Sprague-Dawley-Ratten mit diätetischer Hyperlipidämie; assay: Lipid-lowering effect in rats with dietary hyperlipidaemia, 4 weeks p.o., compared with Clofibrat; liver weight; conditions: for Serum Gesamt-Cholesterin / Serum Triglyceride / Lebergewicht: 4 Wochen; for Serum Gesamt-Cholesterin: 20 animals per group, Kontrolle 15,2 ± 2,4; for Serum Triglyceride: Kontrolle 1,04 ± 0,34; for Lebergewicht: Kontrolle 7,3 ± 0,7
Experimental: Die Testsubstanz wurde über einen Zeitraum von 4 Wochen in Dosierungen von 100 und 200 mg/kg Körpergewicht p.o. täglich per Magensonde in 10 ml einer 1%-igen Traganth-Lösung verabreicht. Clofibrat wurde entsprechend in Dosierungen von 100 und 200 mg/kg gegeben. Die Kontrolltiere erhielten 10 ml der Trägerflüssigkeit Traganth/kg Körpergewicht per Magensonde.
Jede Gruppe bestand aus 20 Tieren; das Gewicht der Leber wurde festgestellt und verglichen.
Die Blutentnahme erfolgte im Ätherrausch aus dem retrobulbären Venenplexus.
Ausgeführt wurden Varianzanalyse und Student-t-Test. Als Signifikanzgrenze diente p≤0,01.

unbehandelten Ratte = assay: Determination of triglyceride lowering in the untreated rat over 4 days; conditions: po, 96 h, 200 mg/kg per Magensonde, 4 Tage, serum triglycerides, percent versus control, 10 animals per group, read-out: Triglyceridsenkung in %
Experimental: Die Verbindungen wurden auf triglyceridsenkende Eigenschaften an der unbehandelten Ratte über einen Zeitraum von 4 Tagen untersucht. Die Substanzen wurden in der Dosierung von 200 mg/kg per Magensonde in 5 ml 1%-iger Traganth-Lösung appliziert. Die Blutentnahme erfolgte im Ätherrausch aus dem retrobulbären Venenplexus. Die Serumtriglyceride wurden nach Eggstein und Kreutz (Klin. Wschr. 44, 262 (1966)) bestimmt. Jede Gruppe bestand aus 10 Tieren. Die statistische Prüfung erfolgte nach dem Student-t-Test. Als Signifikanzgrenze diente p ≤0,01.
Die Triglyceridsenkung durch die untersuchten Substanzen in Prozent gegenüber der Kontrolle ist der Tabelle 2 zu entnehmen.

[3] = 100 mg/kg p.o. täglich, mean ± spread

**Q.** For “1,5-Diphenyl-3-(2-äthoxycarbonylpropyl-2-oxy)-pyrazol [Beispiel 1]”, which LD50 i.p. (NMRI-Maus; i.p., single administration, fasted NMRI mouse, 7 days) is on record?
**A.** Its LD50 i.p. is 684 mg/kg.

**Q.** And the LD50 p.o. (NMRI-Maus; p.o., single administration, fasted NMRI mouse, 7 days)?
**A.** Its LD50 p.o. is >1470 mg/kg.

**Q.** Which results are given for CC(C)(Oc1cc(-c2ccc(Cl)cc2)[nH]n1)C(=O)O [5-(4-Chlorphenyl)-3-(2-hydroxycarbonylpropyl-2-oxy)-pyrazol]?
**A.** Toxizität (NMRI-Maus): geringer Toxizität; perorale antianaphylaktische Wirksamkeit (Versuchstieren): ausgeprägte perorale antianaphylaktische Wirksamkeit

**Q.** For CC(C)(Oc1cc(-c2ccccc2)[nH]n1)C(=O)O [5-Phenyl-3-(2-hydroxycarbonylpropyl-2-oxy)-pyrazol], which Toxizität (NMRI-Maus) is on record?
**A.** Its Toxizität is “geringer Toxizität”.

**Q.** And the “perorale antianaphylaktische Wirksamkeit” value (Versuchstieren)?
**A.** Its value is “ausgeprägte perorale antianaphylaktische Wirksamkeit”.

**Q.** What does the source list for CCOC(=O)C(C)(C)Oc1ccc(Cl)cc1 [Clofibrat, a-(p-Chlorphenoxy)-a-methyl-propionsäureäthylester, reference compound]?
**A.** LD50 at 168 h ([1]; ip, read-out: LD50 i.p.): 566 mg/kg; LD50 at 168 h ([1]; po, read-out: LD50 p.o.): > 1470 mg/kg; Serum Gesamt-Cholesterin [2, 3]: 6,9 ± 2,1 mmol/l; Serum Triglyceride ([2]; 100 mg/kg p.o. täglich): 0,90 ± 0,16 mmol/l; Lebergewicht ([2]; 100 mg/kg p.o. täglich): 8,2 ± 0,9 g/100 g; Serum Gesamt-Cholesterin ([2]; 200 mg/kg p.o. täglich): 5,9 ± 1,7 mmol/l; Serum Triglyceride ([2]; 200 mg/kg p.o. täglich): 0,86 ± 0,66 mmol/l; Lebergewicht ([2]; 200 mg/kg p.o. täglich): 8,2 ± 0,7 g/100 g

**Q.** Which LD50 at 168 h ([1]; ip, read-out: LD50 i.p.) does the source give for CC(C)(Oc1cc(-c2ccccc2)n(-c2ccccc2)n1)C(N)=O [Substanz A, 1,5-Diphenyl-3-(2-aminocarbonylpropyl-2-oxy)-pyrazol] here?
**A.** Its LD50 at 168 h is 571 mg/kg.

**Q.** What about the LD50 at 168 h ([1]; po, read-out: LD50 p.o.) of the same compound?
**A.** The LD50 at 168 h was > 1470 mg/kg.

**Q.** What about the “Serum Gesamt-Cholesterin” value [2, 3] of the same compound?
**A.** Its value is 6,8 ± 2,4 mmol/l.

**Q.** And the “Serum Triglyceride” value ([2]; 100 mg/kg p.o. täglich)?
**A.** Its value is 0,83 ± 0,20 mmol/l.

**Q.** And the Lebergewicht ([2]; 100 mg/kg p.o. täglich)?
**A.** The Lebergewicht was 7,2 ± 0,6 g/100 g.

**Q.** What about the “Serum Gesamt-Cholesterin” value ([2]; 200 mg/kg p.o. täglich) of the same compound?
**A.** The value was 5,5 ± 1,4 mmol/l.

**Q.** What about the “Serum Triglyceride” value ([2]; 200 mg/kg p.o. täglich) of the same compound?
**A.** Its value is 0,70 ± 0,16 mmol/l.

**Q.** And the Lebergewicht ([2]; 200 mg/kg p.o. täglich)?
**A.** The Lebergewicht was 7,4 ± 0,7 g/100 g.

**Q.** What about the “Veränderungen der Leber (Zunahme des Lebergewichtes, Leberzellvergrößerung)” value ([2]; 4 Wochen p.o., 100 and 200 mg/kg) of the same compound?
**A.** Its value is “keinerlei Veränderungen der Leber”.

**Q.** With CC(C)(Oc1cc(-c2ccccc2)[nH]n1)C(N)=O [Substanz Nr. 1, 5-Phenyl-3-(2-aminocarbonylpropyl-2-oxy)-pyrazol] as the compound, how does the inhibition in vivo at 200 mg/kg (unbehandelten Ratte) read?
**A.** Its inhibition in vivo at 200 mg/kg is 15%.

**Q.** For CC(C)(Oc1cc(-c2ccc(Cl)cc2)n(-c2ccccc2)n1)C(N)=O [Substanz Nr. 2, 1-Phenyl-5-(4-chlorphenyl)-3-(2-aminocarbonyl-propyl-2-oxy)-pyrazol], which LD50 at 168 h ([1]; ip, read-out: LD50 i.p.) is on record?
**A.** Its LD50 at 168 h is > 100 mg/kg.

**Q.** What about the LD50 at 168 h ([1]; po, read-out: LD50 p.o.) of the same compound?
**A.** Its LD50 at 168 h is > 1470 mg/kg.

**Q.** And the inhibition in vivo at 200 mg/kg (unbehandelten Ratte)?
**A.** Its inhibition in vivo at 200 mg/kg is 20%.

**Q.** For CC(C)(Oc1cc(-c2cccc(Cl)c2)n(-c2ccccc2)n1)C(N)=O [Substanz Nr. 3, 1-Phenyl-5-(3-chlorphenyl)-3-(2-aminocarbonyl-propyl-2-oxy)-pyrazol], which inhibition in vivo at 200 mg/kg (unbehandelten Ratte) is on record?
**A.** Its inhibition in vivo at 200 mg/kg is 30%.

**Q.** For CC(C)(Oc1cc(-c2ccc(Cl)cc2)[nH]n1)C(N)=O [Substanz Nr. 4, 5-(4-Chlorphenyl)-3-(2-aminocarbonylpropyl-2-oxy)-pyrazol], which inhibition in vivo at 200 mg/kg (unbehandelten Ratte) is on record?
**A.** The inhibition in vivo at 200 mg/kg was 15%.

**Q.** Which inhibition in vivo at 200 mg/kg (unbehandelten Ratte) does the source give for CC(C)(Oc1cc(-c2ccc(Cl)cc2)n(Cc2ccccc2)n1)C(N)=O [Substanz Nr. 5, 1-Benzyl-5-(4-chlorphenyl)-3-(2-aminocarbonyl-propyl-2-oxy)-pyrazol] here?
**A.** The inhibition in vivo at 200 mg/kg was 15%.

**Q.** With CCOC(=O)C(C)(C)Oc1cc(-c2ccc(Cl)cc2)n(-c2ccccc2)n1 [Substanz Nr. 6, 1-Phenyl-5-(4-chlorphenyl)-3-(2-äthoxycarbonyl-propyl-2-oxy)-pyrazol] as the compound, how does the inhibition in vivo at 200 mg/kg (unbehandelten Ratte) read?
**A.** Its inhibition in vivo at 200 mg/kg is 20%.

**Q.** Which inhibition in vivo at 200 mg/kg (unbehandelten Ratte) does the source give for CCOC(=O)C(C)(C)Oc1cc(-c2ccccc2)[nH]n1 [Substanz Nr. 7, 5-Phenyl-3-(2-äthoxycarbonylpropyl-2-oxy)-pyrazol] here?
**A.** Its inhibition in vivo at 200 mg/kg is 25%.

**Q.** Which inhibition in vivo at 200 mg/kg (unbehandelten Ratte) does the source give for CC(C)(Oc1cc(-c2ccccc2)n(-c2ccccc2)n1)C(=O)O [Substanz Nr. 8, 1,5-Diphenyl-3-(2-hydroxycarbonylpropyl-2-oxy)-pyrazol] here?
**A.** The inhibition in vivo at 200 mg/kg was 30%.
